Data reported in patent US20230072392A1, “NASAL SPRAY” (BREATHE BETTER LLC, priority 2021, published 2023).

Key:
[1] = system: individuals; test: Long-term nasal use: rebound effect (rebound congestion); assay type: in vivo, human; settings: oxymetazoline or salts at less than 0.050%, preferably 0.025%
Description: In an embodiment of the nasal spray composition, the nasal spray composition may include effective amounts of a decongestant or vasoconstrictor, such as oxymetazoline, or pharmaceutical acceptable salts thereof, such as oxymetazoline hydrochloride. In an illustrative embodiment, the effective amount of oxymetazoline or pharmaceutical acceptable salts thereof, is less than 0.050%, between less than 0.050% and 0.010%, and more preferably, 0.025% or about 0.025%. Oxymetazoline, a member of the imidazole group, binds and activates alpha-2 adrenergic receptors. Upon nasal administration, imidazole group compounds constrict the arterioles in the nose, resulting in decreasing congestion. Concentrations of oxymetazoline (0.050%) utilized in the over-the-counter sprays have been proven to return symptoms to a degree stronger than present initially upon discontinuation of the drug. This is called the rebound effect, or rebound congestion (rhinitis medicamentosa, chemical rhinitis, or nasal spray addiction). The rebound effect may occur in as early as 3 days of use, but typically occurs in 3-5 days and sometimes 5-7 days of use. […] As such, the nasal spray according to the present invention can be used for a time period greater than 5-7 days without the risk of suffering from any rebound effect. […]

[2] = system: individuals; settings: oxymetazoline 0.050% in over-the-counter sprays, days of use; cited from earlier work

Compound: Cc1cc(C(C)(C)C)c(O)c(C)c1CC1=NCCN1 [oxymetazoline]
- effect on snoring or sleep apnea and rebound effect [1]: effective at reducing or minimizing snoring or sleep apnea while preventing the rebound effect
- rebound effect: earliest onset (may occur in as early as) [2]: 3 days
- rebound effect: onset sometimes [2]: 5 to 7 days
- rebound effect: typical onset [2]: 3 to 5 days
